Where two headings read alike, the source gives them in different places.
Key:
[1] = test system: lung adenocarcinoma cell line H441; test: Cell proliferation (hexosaminidase assay) in lung adenocarcinoma H441 cells, Example 1; format: cell-based, human
Experimental: Cell Proliferation Studies: In order to assess the anti-proliferative activity of the synthesized compounds, an in vitro cell culture system of lung adenocarcinoma cell line H441 was used. The cell detachment and anti-proliferative activity was measured as a decrease in hexosaminidase enzyme activity associated with remainder of the adhered cells. [Landegren, 1984] […] The concentration versus cell proliferation plots were analyzed by an exponential fit (Table 1). The results were compared with the anti-proliferative activity of compound 1.
Cell Culture and drug treatment: Human lung adenocarcinoma cell line NCI-H441 (ATCC Number: HTB-174) was obtained from the American Type Culture Collection (Manassas, Va.). H441 cells were maintained at 37° C. with 5% CO2 in McCoy's 5A Medium (Invitrogen, Carlsbad, Calif.) supplemented with 5% heat-inactivated fetal bovine serum (FBS). All media contained gentamicin at 50 μg/ml (GIBCO Laboratories, Grand Island, N.Y.). Other cells lines (PANC-1, MiaPaCa-2 and PC-3) were also similarly maintained, except that the cell culture medium was RPMI 1640 instead of McCoy's.
To evaluate the anti-proliferative activity of synthesized bis(2-fluorobenzylidene)-4-piperidone and its derivatives, the cells were seeded in 96-well flat-bottom tissue culture plates at a density of 10×10^3 cells per well. The cells were allowed to attach and grow overnight. The test compounds were solubilized in dimethyl sulfoxide (DMSO), filtered through 0.2 μm nylon filter and added to cells at 1, 10, 25 and 100 μM concentrations in culture medium supplemented with 5% FBS. The DMSO concentration was maintained at 0.1% per well. Control wells received equivalent volume of DMSO without any test compounds. The cells were allowed to remain in the treatment medium for 24, 48 and 72 hours.
Cell Proliferation: The total number of cells after the treatment period was estimated by the hexosaminidase assay. [Landegren, 1984] Briefly, the medium was removed and hexosaminidase substrate solution in citrate buffer pH 5 (7.5 mM), […] (Calbiochem, San Diego, Calif.) was added at 60 μl per well. The plate was incubated at 37° C. in 100% humidity for 30 minutes, before stopping the reaction with 90 μl of 50 mM glycine containing 5 mM of EDTA (pH 10.4). The absorbance was measured at 405 nm. The experiments were conducted in triplicate, and repeated at least twice. The data were analyzed as percent of control, where the control wells were treated with equivalent amounts of DMSO alone, and the analyzed data was presented as average±standard error of mean. The differences among mean values were deemed significant at p<0.05.
For IC50 calculations, a plot between the drug concentration and hexosaminidase activity was generated and the data was fitted either linearly or exponentially. The best fit was used for further processing of data.

[2] = Homo sapiens, NCI-H441, 24 h of treatment, 1-100 μM tested, fitted plot, read-out: IC50 value
[3] = Homo sapiens, NCI-H441, 24 h of treatment, read-out: IC50 (grouping relative to compound 1)
[4] = 24 h of treatment, 1-100 μM tested, fitted plot, read-out: IC50 value

Structure (SMILES)	IC50 [1, 2] [µM]	IC50 [1, 3] [µM]	IC50 [1, 4] [µM]	melting point [°C]	anti-proliferative activity in words, relative to the comparator named [1]
O=C1C(=Cc2ccccc2[N+](=O)[O-])CNCC1=Cc1ccccc1[N+](=O)[O-] [Compound 5, 3,5-Bis(2-nitrobenzylidene)-4-piperidone]	93	> 50			the activity remained more or less the same
O=C1C(=Cc2ccc(Cl)cc2)CNCC1=Cc1ccc(Cl)cc1 [Compound 8, 3,5-Bis(4-chlorobenzylidene)-4-piperidone]	87	> 50			no change in the anti-proliferative activity of 8 compared to that of 7
CN(C)c1ccc(C=C2CNCC(=Cc3ccc(N(C)C)cc3)C2=O)cc1 [Compound 9, 3,5-Bis[4-(N,N-dimethylaminoenzylidene)]-4-piperidone]			101		
OC1C(=Cc2ccccc2F)CNCC1=Cc1ccccc1F (stereo not shown) [Compound 10, 3,5-Bis(2-fluorobenzylidene)-4-hydroxy-piperidine]	124	> 50			significantly less anti-proliferative activity as compared to compound 1
O=C1C(Cc2ccccc2F)CNCC1Cc1ccccc1F (stereo not shown) [Compound 11, 3,5-Bis(2-fluorobenzyl)-4-piperidone]	130	> 50			significantly less anti-proliferative activity as compared to compound 1
O=C(O)CCC(=O)N1CC(=Cc2ccccc2F)C(=O)C(=Cc2ccccc2F)C1 [Compound 12]			69		
O=C(O)COCC(=O)N1CC(=Cc2ccccc2F)C(=O)C(=Cc2ccccc2F)C1 [Compound 14, 2-[3,5-Bis-(2-fluorobenzylidene)-4-oxo-piperidin-1-yl]-2-oxo-ethoxyacetic acid]	310	> 50			less potent as compared to compound 15
O=C(O)CCCC(=O)N1CC(=Cc2ccccc2F)C(=O)C(=Cc2ccccc2F)C1 [Compound 15, 5-[3,5-Bis-(2-fluorobenzylidene)-4-oxo-piperidin-1-yl]-5-oxo-pentanoic acid]	60	> 50		167 to 168	
O=C1C(=Cc2ccccc2F)CN(C(=O)c2ccccc2C(=O)O)CC1=Cc1ccccc1F [Compound 16, 2-[3,5-Bis-(2-fluorobenzylidene)-4-oxo-piperidine-1-carbonyl]-benzoic acid]	56	> 50			very potent analog
O=C1C(=Cc2ccccc2F)CN(C(=O)C2CCCCC2C(=O)O)CC1=Cc1ccccc1F (stereo not shown) [Compound 17, 2-[3,5-Bis-(2-fluorobenzylidene)-4-oxo-piperidine-1-carbonyl]-cyclohexanecarboxylic acid]	55	> 50		96 to 98	
O=C(CCC(=O)N1CC(=Cc2ccccc2F)C(=O)C(=Cc2ccccc2F)C1)N[C@H]1C(O)O[C@H](CO)[C@@H](O)[C@@H]1O (stereo partly shown) [Compound 22, 4-Oxo-4-[3,5-bis(2-fluorobenzylidene-4-piperidonylcarbonyl)-2-glucosepropanamide]]			79		reduced anti-proliferative activity
O=C(CN1CC(=Cc2ccccc2F)C(=O)C(=Cc2ccccc2F)C1)NCc1ccc(F)cc1 [Compound 23, 2-[3,5-Bis(2-fluorobenzylidene-4-piperidone-1-yl)-N-(4-fluorobenzyl)acetamide]]			46		
CCCCCCCCCCCCCCCCNC(=O)CCC(=O)N1CC(=Cc2ccccc2F)C(=O)C(=Cc2ccccc2F)C1 [Compound 24, 4-[3,5-Bis-(2-fluorobenzylidene)-4-oxo-piperidin-1-yl]-N-hexadecyl-4-oxo-butyramide]	64	> 50			loss of anti-proliferative activity
CCCCCCCCCCC=CC(CC(=O)O)C(=O)N1CC(=Cc2ccccc2F)C(=O)C(=Cc2ccccc2F)C1 (stereo not shown) [Compound 26, 3-[3,5-Bis-(2-fluorobenzylidene)-4-oxo-piperidine-1-carbonyl]-pentadec-4-enoic acid]	58	> 50			acceptable anti-proliferative activity
CCCCCCCCCCCCCCCCC=CC(CC(=O)O)C(=O)N1CC(=Cc2ccccc2F)C(=O)C(=Cc2ccccc2F)C1 (stereo not shown) [Compound 28, 3-[3,5-Bis-(2-fluorobenzylidene)-4-oxo-piperidine-1-carbonyl]-heneicos-4-enoic acid]	84	> 50			total loss of activity

More lines, main results first:

IC50 [1, 2] [µM]	IC50 [1, 3] [µM]	IC50 [1, 4] [µM]	melting point [°C]	Structure (SMILES)	anti-proliferative activity in words, relative to the comparator named [1]
12	< 30			O=C1C(=Cc2ccccc2)CNCC1=Cc1ccccc1 [Compound 2, 3,5-Bis(benzylidene)-4-piperidone]	
5	< 30			O=C1C(=Cc2ccccc2Cl)CNCC1=Cc1ccccc1Cl [Compound 3, 3,5-Bis(2-chlorobenzylidene)-4-piperidone]	more anti-proliferative than the 2-fluoro substituted compound 1
6	< 30			O=C1C(=Cc2ccccc2Br)CNCC1=Cc1ccccc1Br [Compound 4, 3,5-Bis(2-bromobenzylidene)-4-piperidone]	
50				O=C1C(=Cc2cccc(Cl)c2)CNCC1=Cc1cccc(Cl)c1 [Compound 6, 3,5-Bis(3-chlorobenzylidene)-4-piperidone]	little change in IC50 as compared to that of compound 1
45.7				O=C1C(=Cc2ccc(F)cc2)CNCC1=Cc1ccc(F)cc1 [Compound 7, 3,5-Bis(4-fluorobenzylidene)-4-piperidone]	
29	< 30			O=C(O)C=CC(=O)N1CC(=Cc2ccccc2F)C(=O)C(=Cc2ccccc2F)C1 [Compound 13, 4-[3,5-Bis-(2-fluorobenzylidene)-4-oxo-piperidin-1-yl]-4-oxo-2-butenoic acid]	significant enhancement in potency
49				O=CN1CC(=Cc2ccccc2F)C(=O)C(=Cc2ccccc2F)C1 [Compound 18, N-Formyl-3,5-bis(2-fluorobenzylidene)-4-piperidone]	performed slightly better than compound 1
54	> 50			CC(=O)N1CC(=Cc2ccccc2F)C(=O)C(=Cc2ccccc2F)C1 [Compound 19, N-Acetyl-3,5-bis(2-fluorobenzylidene)-4-piperidone]	performed slightly better than compound 1
50	> 50		162 to 163	Cc1ccc(S(=O)(=O)N2CC(=Cc3ccccc3F)C(=O)C(=Cc3ccccc3F)C2)cc1 [Compound 20, N-(4-Methylbenzenesulfonyl)-3,5-bis(2-fluorobenzylidene)-4-piperidone]	
47				CCCCCCCCCCCCC=CC(CC(=O)O)C(=O)N1CC(=Cc2ccccc2F)C(=O)C(=Cc2ccccc2F)C1 (stereo not shown) [Compound 27, 3-[3,5-Bis-(2-fluorobenzylidene)-4-oxo-piperidine-1-carbonyl]-heptadec-4-enoic acid]	acceptable anti-proliferative activity

Source: patent publication US9359196B2, “Antiproliferative compositions comprising curcumin analogs and methods of producing and using same” (The Board of Regents of the University of Oklahoma, priority 2009, dated 2016)
